From patent US20220259536A1, “MICROCHANNEL CELL CULTURE DEVICE AND SYSTEM” (THE CHARLES STARK DRAPER LABORATORY, INC., priority 2021, published 2022)

Test system: Human renal proximal tubule cells
Assay: optical label-free measurement of cell oxygen consumption in multi-well microfluidic tissue culture device
Format: cell-based
Conditions: human renal proximal tubule cells treated with Oligomycin; static conditions after turning off pumps; FIG. 15B, varying drug concentrations
Source text: An optical luminescence-based oxygen sensing system was integrated with an existing multi-well microfluidic tissue culture device, for label-free oxygen monitoring (FIG. 13). Sensor spots having a diameter of 0.75 mm were cut with a biopsy punch from a sheet of photosensitive film (PyroScience) and bonded with 184 Sylgard silicone adhesive to the center floor of each basal channel. The photosensitive sensor spot was located about 200 μm from the tissue layer on the surface of bottom channel. A FireStingO2 optical oxygen meter (PyroScience) with a 2 m fiber optic cable (external to channel) was used to monitor oxygen in each device. For oxygen measurements, the device was placed in an incubated confocal microscope (Zeiss Inc., Oberkochen, Germany) and the fiber optic was secured below the microscope stage. The stage was programmed to align the fiber optic with each sensor for oxygen monitoring in all 96 tissue modeling environments. A 2-point calibration of the FireStingO2 system was performed using devices filled with air saturated PBS and a 0% oxygen solution (30 g/L sodium sulfite in water). […] Tissue oxygen consumption was measured for the human renal proximal tubule cells by cycling the pumps carrying oxygen rich fluid on and off (FIG. 14). As shown in the graph of FIG. 14, under static conditions, cell oxygen consumption was measured immediately upon turning off fluid pumps.

`CC[C@H]1/C=C/C=C/C[C@@H](C)[C@H](O)[C@@](C)(O)C(=O)[C@@H](C)[C@H](O)[C@@H](C)C(=O)[C@@H](C)[C@H](O)[C@@H](C)/C=C/C(=O)O[C@@H]2[C@H](C)[C@H](CC1)O[C@]1(CC[C@H](C)[C@H](C[C@@H](C)O)O1)[C@H]2C` [Oligomycin] was tested, and the “cell oxygen consumption rate” value was “significant decrease”.
